What all share (format): cell-based, human
The subject of one experiment is TNF-α. The experiment in a line: hPBMC membrane-monocyte contact bioassay: TNF-α. Conditions: activated hPBMC membranes, 24 h. The source says: The assay was designed as in reference, Immunology Letters, 117, 114-118, (2008), the disclosure of which is incorporated by reference for the teaching of the assay. Activated T cell contact-mediated monocyte activation, leading to the production of proinflammatory cytokines (e.g., TNF-α, IL-6), contributes to the pathogenesis of chronic inflammatory diseases including rheumatoid arthritis.
6-well plates (Nunc, USA) were coated with Goat anti-Mouse IgG, Fc (Chemicon, USA) at a concentration of 16.5 μL/mL in coating buffer ([…] NaHCO3, 3.56 g Na2CO3, pH 9.5).
The plates were incubated overnight at 4° C. under sterile conditions. […]
Following incubation, hPBMCs in separate wells of the 6-well plate were harvested, pooled together, and centrifuged. […] The pellet of hPBMC membranes was resuspended in lysis buffer (Sigma, USA) and the protein concentration was determined by the method of Bradford (Sigma, USA).
100 μL monocytes per well at 5×10^5 cells/mL were added to the 96-well plate (Nunc, USA) and cultured for 48 h at 37° C. […] Supernatants were collected after 24 h and TNF-α and IL-6 production was measured using OptiEIA ELISA sets, (BD BioSciences, USA). […]

A further experiment concerns IL-6. Kind of experiment: Gene expression profile using RTQ-PCR: IL-6. As to conditions: 3 μM. On the procedure: (§1) The effect of the compound of example 7 was measured in stimulated untreated cells from the monocytic cell line (THP-1), human monocytes and synovial cells from rheumatoid arthritis patient. The effect of the compound in the THP-1 cell line was measured in terms of gene expression and was expressed as fold changes as compared to the cell stimulated control with no drug treatment.
(§2) THP-1 cells, human monocytes and synovial cells were treated with compound of example 7 or vehicle (0.5% DMSO). Total RNA isolation using a commercial RNA extraction kit (Qiagen Corporation, Germany) The first-strand cDNA was synthesized from total RNA using first strand cDNA synthesis kit from Invitrogen Corporation (California, USA). This was followed by real time quantitative polymerase chain reaction (RTQ PCR) using gene specific primers and standard thermal program of initial denaturation at 95° C. for 5 min and cycles of 95° C. for 10 seconds, followed by 60° C. for 30 seconds (Realplex PCR machine from Eppendorf, Germany). Quantitative measurement of products made during PCR cycles was normalized against a housekeeping gene (Actin) and was used to measure the gene expression as fold changes as compared to respective control.

A further experiment deals with CEBPδ. Kind of experiment: Gene expression profile using RTQ-PCR: CEBPδ. Conditions: 3 μM. Here is the method:
as §1, §2

[1] abbreviates: Human monocytes, 3 h, ± SE, N = 3.

Molecules are shown by their SMILES.

As to `C/C=C/C(O)C(C)/C=C/C(=N\O)C(C)C(O)C(C)C1OC(=O)/C(OC)=C/C(C)=C/C(C)C(O)C(CC)C(O)C(C)C/C(C)=C/C=C/C1OC` (stereo not shown) [Compound of example 7, (3Z,5E,13E,15E)-18-((5Z,6E,10E)-3,9-Dihydroxy-5-(hydroxymino)-4,8-dimethyldodeca-6,10-dien-2-yl)-9-ethyl-8,10-dihydroxy-3,17-dimethoxy-5,7,11,13-tetramethyl oxacyclooctadeca-3,5,13,15-tetraen-2-one], the “inhibition of TNF-α production from monocytes” value in the experiment on TNF-α is recorded as “did not inhibit”. In addition, the IL-6 gene expression is on record as −1.1 + 1.0 log fold change with IL-6 (setting [1]); −4.0 log fold change in the experiment with IL-6 (Synovial cells, 12 h, N = 1); −1.5 + 1.0 log fold change in the experiment on IL-6 (THP-1 cells, 12 h, ± SE, N = 3). Also, the CEBPδ gene expression with CEBPδ (setting [1]) is listed as −1.4 + 0.4 log fold change; in the experiment on CEBPδ (Synovial cells, 12 h, N = 1), −1.1 log fold change; with CEBPδ (THP-1 cells, 12 h, ± SE, N = 3), −1.8 + 1.0 log fold change.

The values above are taken from US20120225889A1, “USE OF MACROCYCLIC LACTONE DERIVATIVES FOR THE TREATMENT OF INFLAMMATORY DISORDERS” (PIRAMAL LIFE SCIENCES LIMITED, priority 2010, published 2012).
